Source: US11357752B2, “Carolacton and derivatives thereof for use in the treatment of cell proliferation disorders” (Helmholtz-Zentrum für Infektionsforschung GmbH, priority 2017, dated 2022)
Like-named read-outs stand apart in the source and are kept apart here.

Tests used:
spFoID = molecular target: T1, spFoID (Streptococcus pneumoniae serotype 4, UniProt Q97RI9); test: FoID dehydrogenase (DH) enzyme assay; type: biochemical, S. pneumoniae
T1 construct: made in house; host or cells: E. coli BL21 (DE3)
T1 sequence (Q97RI9 whole entry): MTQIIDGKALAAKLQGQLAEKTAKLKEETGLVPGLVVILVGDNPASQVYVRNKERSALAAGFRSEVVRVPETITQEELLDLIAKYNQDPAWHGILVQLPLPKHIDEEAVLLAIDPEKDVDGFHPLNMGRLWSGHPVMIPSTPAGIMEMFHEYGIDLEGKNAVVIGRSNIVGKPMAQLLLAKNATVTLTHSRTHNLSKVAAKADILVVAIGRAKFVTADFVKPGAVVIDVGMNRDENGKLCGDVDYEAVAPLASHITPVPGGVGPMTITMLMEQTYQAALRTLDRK
Experimental: (§1) (6R,S)-5,10-Methylene-5,6,7,8-tetrahydrofolic acid ((6R,S)-5,10-CH2-THF), calcium salt and (6R,S)-5,10-Methenyl-5,6,7,8-tetrahydrofolic acid ((6R,S)-5,10-CH=THF) chloride were purchased from Schircks Laboratories (Bauma, Switzerland) and were used as substrates for FoID dehydrogenase and cyclohydrolase enzyme assays, respectively. Only the R-isomer, which accounts for 50% of (6R,S)-5,10-CH2-THF and (6R,S)-5,10-CH=THF, respectively, is used by the enzyme. (6R,S)-5,10-CH2-THF was dissolved in N2-spargeled basic buffer (50 mM Tris-HCl (pH 8.0), 100 mM β-mercaptoethanol) as described by Sah and Varshney, 2015a (6R,S)-5,10-CH=THF was first dissolved in DMSO as a 100 mM stock solution.
(§2) Because FoID is a bifunctional enzyme, dehydrogenase and cyclohydrolase activities were determined for FoID enzyme kinetics, respectively. The dehydrogenase activity of FoID was assayed for its substrate 5,10-CH2-THF and cofactor NADP+ (in the case of MTHFD2, NAD+ was used as cofactor) based on monitoring the formation of 5,10-CH=THF while the cyclohydrolase activity of FoID was determined for its substrate 5,10-CH=THF by monitoring the hydrolysis of 5,10-CH2-THF. The enzyme kinetics for the dehydrogenase activity of all FoIDs except hsMTHFD1_DC were determined at 30° C. in 50 mM Tris-HCl (pH 7.5), 30 mM β-mercaptoethanol. The hsMTHFD1_DC dehydrogenase activity was measured in 25 mM MOPS (pH 7.3), 30 mM β-mercaptoethanol at 30° C. To measure the enzyme kinetics constants for 5,10-CH2-THF, for example in the case of ecFoID, the NADP concentration was fixed at 1 mM and the concentration of 5,10-CH2-THF varied from 5 μM to 1,500 μM (R-isomer). Similarly, to measure the kinetic constants of ecFoID for NADP+, the concentration of 5,10-CH2-THF (R-isomer) was fixed at 1 mM and the concentration of NADP+ varied from 10 μM to 1,500 μM. For different FoIDs, the varied concentration range of substrates could be different. […] To monitor the formation of 5,10-CH=THF, the absorbance of the reaction mixture was monitored at 350 nm in micro UV cuvettes (BRAND, Essex, Connecticut, USA). The concentration of 5,10-CH=THF produced in the reaction was determined using an extinction co-efficient of 0.0249 μM-1 cm-1. […] The consumption of 5,10-CH=THF was measured by recording the absorbance of the reactions at 355 nm using the TECAN Infinite 200 PRO equipped with a monochromator. […] The inhibition constants (Ki) of carolacton on FoID were determined by measuring the apparent Km values when adding certain amounts of carolacton to the enzyme reactions. […] To compare the inhibition effects of carolacton between the different FoIDs, the half maximal inhibitory concentration (IC50) of carolacton on the same amount of enzyme was determined for FoIDs involved in this study. […]

hsMTHFD1 DC301 = molecular target: T2, hsMTHFD1 DC301 (Homo sapiens, UniProt P11586); test: FoID cyclohydrolase (CYH) enzyme assay; type: biochemical
T2 construct: We therefore expressed and purified hsMTHFD2 and hsMTHFD1_DC to test them biochemically; His-tag (vector pHis-TEV); made in house; host or cells: E. coli BL21 (DE3)
T2 sequence (P11586 2-291 limits assumed): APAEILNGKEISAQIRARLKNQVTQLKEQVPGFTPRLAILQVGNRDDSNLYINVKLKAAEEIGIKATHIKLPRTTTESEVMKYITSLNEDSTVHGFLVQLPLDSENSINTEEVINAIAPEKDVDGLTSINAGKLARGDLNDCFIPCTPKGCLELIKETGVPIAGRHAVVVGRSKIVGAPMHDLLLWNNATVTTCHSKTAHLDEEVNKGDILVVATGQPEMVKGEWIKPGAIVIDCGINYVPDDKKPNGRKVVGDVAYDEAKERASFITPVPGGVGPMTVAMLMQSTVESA
Experimental: as §1, §2

hsMTHFD2 = molecular target: T3, hsMTHFD2 (Homo sapiens, UniProt P13995); test: FoID cyclohydrolase (CYH) enzyme assay; type: biochemical
T3 construct: His-tag (vector pHis-TEV); made in house; host or cells: E. coli BL21 (DE3)
T3 sequence (P13995 36-350): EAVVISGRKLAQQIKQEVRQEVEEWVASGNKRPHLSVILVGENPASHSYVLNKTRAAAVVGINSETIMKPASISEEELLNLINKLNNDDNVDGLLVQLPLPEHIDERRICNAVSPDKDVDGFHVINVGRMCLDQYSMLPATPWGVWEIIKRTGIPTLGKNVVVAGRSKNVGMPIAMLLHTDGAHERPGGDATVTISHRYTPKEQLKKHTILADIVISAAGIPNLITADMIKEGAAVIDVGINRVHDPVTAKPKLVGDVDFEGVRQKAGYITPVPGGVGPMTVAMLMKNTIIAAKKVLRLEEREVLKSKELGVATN
Experimental: as §1, §2

[1] = 5 nM enzyme, read-out: IC50, carolacton inhibition on CYH activity
[2] = vs 5,10-CH=THF, read-out: Ki (5,10-CH═THF), carolacton inhibition on CYH activity

CO[C@H](CC(=O)O)[C@@H](C)C(=O)[C@H](C)/C=C(\C)[C@H]1OC(=O)[C@H](O)[C@H](O)/C=C/[C@H](C)CCC[C@@H]1C [Carolacton, carolacton]
IC50 (spFoID; 10 nM enzyme, read-out: IC50, carolacton inhibition on DH activity): 36.8 nM | IC80 (spFoID; 10 nM enzyme, read-out: IC80, carolacton inhibition on DH activity): 169 nM | Ki (spFoID; vs 5,10-CH2-THF, read-out: Ki (5,10-CH2—THF), carolacton inhibition on DH activity): 42.2 nM | Ki (spFoID; vs cofactor NADP+, read-out: Ki (NADP^+), carolacton inhibition on DH activity): 34.2 nM | IC50 (hsMTHFD1 DC301; [1]): 19.4 nM | Ki (hsMTHFD1 DC301; [2]): 20.6 nM | IC50 (hsMTHFD2; [1]): 85.7 nM | Ki (hsMTHFD2; [2]): 12.7 nM
